Experimental data published in PubChem BioAssay (NCI).
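Test compounds were applied to cells in 96-well plates for 48 hours at 5 doses. TGI denotes the concentration required for complete inhibition of growth.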

tested on: TK-10 renal; assay: NCI-60 cell line screen, 48 h

Row | Compound | TGI
1 | NC(CCC(=O)NC(CSC(=O)N(O)c1ccc(Br)cc1)C(=O)NCC(=O)O)C(=O)O (stereo unspecified) | > 100 µM
2 | CCOC(=O)CCc1c(C)c2c(OC(C)=O)cc(OC(C)=O)cc2oc1=O | > 100 µM

tested on: PC-3 prostate; assay: NCI-60 cell line screen, 48 h

Row | Compound | TGI
3 | NC(CCC(=O)NC(CSC(=O)N(O)c1ccc(Br)cc1)C(=O)NCC(=O)O)C(=O)O (stereo unspecified) | > 50 µM

tested on: RXF 393 renal; assay: NCI-60 cell line screen, 48 h

Row | Compound | TGI
4 | N#C/C(=C\c1ccc(O)c(O)c1)C(N)=O | 51.6 µM
5 | COc1cc2c(cc1OC)C(O)[C@H](Br)C(C)(C)O2 (stereo partly specified) | > 100 µM
6 | Cc1cn(C2CC(N(O)Cc3ccccc3)C(CO)O2)c(=O)[nH]c1=O (stereo unspecified) | > 100 µM
7 | O=C(CCC/C(CC(=O)c1ccc(Br)cc1)=N\O)Nc1ccccc1 | > 100 µM
8 | NC(CCC(=O)NC(CSC(=O)N(O)c1ccc(Br)cc1)C(=O)NCC(=O)O)C(=O)O (stereo unspecified) | > 100 µM
9 | CCOC(=O)CCc1c(C)c2c(OC(C)=O)cc(OC(C)=O)cc2oc1=O | 73.3 µM

tested on: CCRF-CEM leukemia; assay: NCI-60 cell line screen, 48 h

Row | Compound | TGI
10 | N#C/C(=C\c1ccc(O)c(O)c1)C(N)=O | 37.7 µM
11 | COc1cc2c(cc1OC)C(O)[C@H](Br)C(C)(C)O2 (stereo partly specified) | > 100 µM
12 | Cc1cn(C2CC(N(O)Cc3ccccc3)C(CO)O2)c(=O)[nH]c1=O (stereo unspecified) | > 100 µM
13 | O=C(CCC/C(CC(=O)c1ccc(Br)cc1)=N\O)Nc1ccccc1 | > 100 µM
14 | COc1c(C)c2c(c(C)c1Cl)Oc1c(C=O)c(O)c(Cl)c(C)c1C(=O)O2 | 72.5 µM
15 | NC(CCC(=O)NC(CSC(=O)N(O)c1ccc(Br)cc1)C(=O)NCC(=O)O)C(=O)O (stereo unspecified) | > 100 µM

tested on: SF-295 CNS; assay: NCI-60 cell line screen, 48 h

Row | Compound | TGI
16 | N#C/C(=C\c1ccc(O)c(O)c1)C(N)=O | > 100 µM
17 | COc1cc2c(cc1OC)C(O)[C@H](Br)C(C)(C)O2 (stereo partly specified) | > 100 µM
18 | Cc1cn(C2CC(N(O)Cc3ccccc3)C(CO)O2)c(=O)[nH]c1=O (stereo unspecified) | > 100 µM
19 | O=C(CCC/C(CC(=O)c1ccc(Br)cc1)=N\O)Nc1ccccc1 | > 100 µM
20 | COc1c(C)c2c(c(C)c1Cl)Oc1c(C=O)c(O)c(Cl)c(C)c1C(=O)O2 | > 100 µM
21 | NC(CCC(=O)NC(CSC(=O)N(O)c1ccc(Br)cc1)C(=O)NCC(=O)O)C(=O)O (stereo unspecified) | > 100 µM
22 | CCOC(=O)CCc1c(C)c2c(OC(C)=O)cc(OC(C)=O)cc2oc1=O | > 100 µM

tested on: LOX IMVI melanoma; assay: NCI-60 cell line screen, 48 h

Row | Compound | TGI
23 | COc1cc2c(cc1OC)C(O)[C@H](Br)C(C)(C)O2 (stereo partly specified) | > 100 µM
24 | Cc1cn(C2CC(N(O)Cc3ccccc3)C(CO)O2)c(=O)[nH]c1=O (stereo unspecified) | > 100 µM
25 | O=C(CCC/C(CC(=O)c1ccc(Br)cc1)=N\O)Nc1ccccc1 | > 100 µM
26 | COc1c(C)c2c(c(C)c1Cl)Oc1c(C=O)c(O)c(Cl)c(C)c1C(=O)O2 | 90.7 µM
27 | NC(CCC(=O)NC(CSC(=O)N(O)c1ccc(Br)cc1)C(=O)NCC(=O)O)C(=O)O (stereo unspecified) | > 100 µM

tested on: CAKI-1 renal; assay: NCI-60 cell line screen, 48 h

Row | Compound | TGI
28 | N#C/C(=C\c1ccc(O)c(O)c1)C(N)=O | > 100 µM
29 | COc1c(C)c2c(c(C)c1Cl)Oc1c(C=O)c(O)c(Cl)c(C)c1C(=O)O2 | > 100 µM
30 | NC(CCC(=O)NC(CSC(=O)N(O)c1ccc(Br)cc1)C(=O)NCC(=O)O)C(=O)O (stereo unspecified) | > 100 µM
31 | CCOC(=O)CCc1c(C)c2c(OC(C)=O)cc(OC(C)=O)cc2oc1=O | > 100 µM

tested on: OVCAR-5 ovarian; assay: NCI-60 cell line screen, 48 h

Row | Compound | TGI
32 | N#C/C(=C\c1ccc(O)c(O)c1)C(N)=O | > 100 µM
33 | COc1cc2c(cc1OC)C(O)[C@H](Br)C(C)(C)O2 (stereo partly specified) | > 100 µM
34 | Cc1cn(C2CC(N(O)Cc3ccccc3)C(CO)O2)c(=O)[nH]c1=O (stereo unspecified) | > 100 µM
35 | O=C(CCC/C(CC(=O)c1ccc(Br)cc1)=N\O)Nc1ccccc1 | > 100 µM
36 | COc1c(C)c2c(c(C)c1Cl)Oc1c(C=O)c(O)c(Cl)c(C)c1C(=O)O2 | 78.8 µM
37 | NC(CCC(=O)NC(CSC(=O)N(O)c1ccc(Br)cc1)C(=O)NCC(=O)O)C(=O)O (stereo unspecified) | > 100 µM
38 | CCOC(=O)CCc1c(C)c2c(OC(C)=O)cc(OC(C)=O)cc2oc1=O | > 100 µM

tested on: MOLT-4 leukemia; assay: NCI-60 cell line screen, 48 h

Row | Compound | TGI
39 | N#C/C(=C\c1ccc(O)c(O)c1)C(N)=O | 38.6 µM
40 | COc1cc2c(cc1OC)C(O)[C@H](Br)C(C)(C)O2 (stereo partly specified) | > 100 µM
41 | Cc1cn(C2CC(N(O)Cc3ccccc3)C(CO)O2)c(=O)[nH]c1=O (stereo unspecified) | > 100 µM
42 | O=C(CCC/C(CC(=O)c1ccc(Br)cc1)=N\O)Nc1ccccc1 | > 100 µM
43 | COc1c(C)c2c(c(C)c1Cl)Oc1c(C=O)c(O)c(Cl)c(C)c1C(=O)O2 | 65.2 µM
44 | NC(CCC(=O)NC(CSC(=O)N(O)c1ccc(Br)cc1)C(=O)NCC(=O)O)C(=O)O (stereo unspecified) | > 100 µM

tested on: HS 578T breast; assay: NCI-60 cell line screen, 48 h

Row | Compound | TGI
45 | NC(CCC(=O)NC(CSC(=O)N(O)c1ccc(Br)cc1)C(=O)NCC(=O)O)C(=O)O (stereo unspecified) | > 50 µM

tested on: SNB-19 CNS; assay: NCI-60 cell line screen, 48 h

Row | Compound | TGI
46 | N#C/C(=C\c1ccc(O)c(O)c1)C(N)=O | > 100 µM
